Assays:
[1] = molecular target: BcsE (Escherichia coli, UniProt P37657); experiment: equilibrium dialysis with purified MBP-BcsE; type: binding
[2] = molecular target: T1, YcgR (Escherichia coli, UniProt P76010); experiment: […]-c-di-GMP DRaCALA with cell lysates, competed by unlabeled c-di-GMP; type: cell-based
T1 sequence (P76010 1-244): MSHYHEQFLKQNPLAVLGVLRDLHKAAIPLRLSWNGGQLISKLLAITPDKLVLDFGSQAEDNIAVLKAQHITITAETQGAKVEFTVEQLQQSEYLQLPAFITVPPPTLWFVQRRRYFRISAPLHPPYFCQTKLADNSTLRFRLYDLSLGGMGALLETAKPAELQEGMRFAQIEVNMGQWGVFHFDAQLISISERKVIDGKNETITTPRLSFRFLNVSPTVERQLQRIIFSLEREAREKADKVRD

BcsE, sequence (P37657 whole entry): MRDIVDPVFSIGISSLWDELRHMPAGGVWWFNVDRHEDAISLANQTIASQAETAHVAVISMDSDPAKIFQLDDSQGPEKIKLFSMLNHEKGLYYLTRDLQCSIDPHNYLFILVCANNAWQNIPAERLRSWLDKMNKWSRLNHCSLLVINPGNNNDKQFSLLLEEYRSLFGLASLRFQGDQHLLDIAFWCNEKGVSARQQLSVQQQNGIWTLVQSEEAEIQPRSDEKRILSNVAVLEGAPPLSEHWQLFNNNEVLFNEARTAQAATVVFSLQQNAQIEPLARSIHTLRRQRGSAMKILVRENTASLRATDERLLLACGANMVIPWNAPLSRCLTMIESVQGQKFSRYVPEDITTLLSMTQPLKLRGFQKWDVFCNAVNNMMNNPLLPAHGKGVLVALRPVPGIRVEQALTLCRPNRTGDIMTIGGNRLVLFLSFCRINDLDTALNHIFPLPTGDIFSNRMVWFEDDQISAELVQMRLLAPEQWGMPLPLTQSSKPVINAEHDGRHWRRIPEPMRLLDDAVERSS

Nc1nc2c(ncn2[C@@H]2O[C@@H]3COP(=O)(O)O[C@H]4[C@@H](O)[C@H](n5cnc6c(=O)[nH]c(N)nc65)O[C@@H]4COP(=O)(O)O[C@H]3[C@H]2O)c(=O)[nH]1 [c-di-GMP]
Kd [1]: 2.42 µM
33P-c-di-GMP DRaCALA with cell lysates, competed by unlabeled c-di-GMP [2]: Only the YcgR and Clp lysates produced positive signals (Fig. 1B).
